test system: Hep3B cells; experiment: TT LLNs-mediated luciferase transfection assay; assay type: cell-based, human; conditions: first round of TT3-DOPE LLNs
Description: R. et. al. J. Am. Chem. Soc. 2011, 133, 8995-9004). After formulation, the freshly formed […] were used immediately for cell transfection. For in vivo studies, the freshly prepared LLNs were then dialyzed against PBS buffer using Slide-A-Lyzer dialysis cassettes (3.5 K MWCO, Life Technologies, Grand island, N.Y.). […] Entrapment efficiency of LLNs was determined using the Ribogreen assay reported previously (Love Kevin, T. et. al. Proc. Natl. Acad. Sci. […] Chen, D. et. al. J. Am. Chem. Soc. 2012, 134, 6948-6951). TT LLNs-Mediated Luciferase Transfection Assay. The human hepatocellular carcinoma cell line Hep3B was purchased from American Type Culture Collection (Manassas, Va.) and maintained at 37° C. with 5% CO2 in Eagle's Minimum Essential Medium (MEM) supplemented with 10% heat inactivated FBS. […] Transfections were performed in triplicate. After 6 h of transfection, culture medium containing TT LLNs was carefully removed, and 50 μL of serum-free EMEM and 50 μL of Bright-Glo luciferase substrate were mixed and added to each well. […] Free Flue mRNA served as a negative control. Orthogonal Array Experimental Design. In order to identify a preferred molar ratio of the formulation components, an orthogonal array experiment design was utilized. Four formulation components were assigned in the following orthogonal experiments with a fixed TT/mRNA ratio (10/1). TT3S-DOPE LLNs 1-1 to 1-16 were prepared according to the orthogonal array design table L16(4)^4 and used to transfect Hep3B cells (Table 2). […] On the basis of the result of the first round of nanoparticle formulation, the levels of each factor were further refined, and the second round orthogonal experiment with 16 formulations TT3-DOPE LLNs 2-1 to 2-16 was conducted (Table 4). A similar analysis was performed as described above.

Compound | ΔK = Kmax − Kmin (impact of the component on mRNA delivery)
1,2-dimyristoyl-sn-glycerol, methoxypolyethylene glycol-2000 [DMG-PEG2000] | 1121
CC(C)CCC[C@@H](C)[C@H]1CC[C@H]2[C@@H]3CC=C4C[C@@H](O)CC[C@]4(C)[C@H]3CC[C@]12C [Cholesterol, cholesterol] | 1121
CCCCCCCC/C=C\CCCCCCCC(=O)OC[C@H](COP(=O)(O)OCCN)OC(=O)CCCCCCC/C=C\CCCCCCCC [DOPE, 1,2-dioleoyl-sn-glycero-3-phosphoethanolamine] | 1231

same assay, conditions: first round of TT3-DOPE LLNs; level 1 of the component

Compound | K1 (average luminescence intensity, Kn = ΣRLIn/4)
1,2-dimyristoyl-sn-glycerol, methoxypolyethylene glycol-2000 [DMG-PEG2000] | 1295
CC(C)CCC[C@@H](C)[C@H]1CC[C@H]2[C@@H]3CC=C4C[C@@H](O)CC[C@]4(C)[C@H]3CC[C@]12C [Cholesterol, cholesterol] | 108
CCCCCCCC/C=C\CCCCCCCC(=O)OC[C@H](COP(=O)(O)OCCN)OC(=O)CCCCCCC/C=C\CCCCCCCC [DOPE, 1,2-dioleoyl-sn-glycero-3-phosphoethanolamine] | 325

same assay, conditions: first round of TT3-DOPE LLNs; level 2 of the component

Compound | K2 (average luminescence intensity, Kn = ΣRLIn/4)
1,2-dimyristoyl-sn-glycerol, methoxypolyethylene glycol-2000 [DMG-PEG2000] | 407
CC(C)CCC[C@@H](C)[C@H]1CC[C@H]2[C@@H]3CC=C4C[C@@H](O)CC[C@]4(C)[C@H]3CC[C@]12C [Cholesterol, cholesterol] | 1229
CCCCCCCC/C=C\CCCCCCCC(=O)OC[C@H](COP(=O)(O)OCCN)OC(=O)CCCCCCC/C=C\CCCCCCCC [DOPE, 1,2-dioleoyl-sn-glycero-3-phosphoethanolamine] | 369

same assay, conditions: first round of TT3-DOPE LLNs; level 3 of the component

Compound | K3 (average luminescence intensity, Kn = ΣRLIn/4)
1,2-dimyristoyl-sn-glycerol, methoxypolyethylene glycol-2000 [DMG-PEG2000] | 424
CC(C)CCC[C@@H](C)[C@H]1CC[C@H]2[C@@H]3CC=C4C[C@@H](O)CC[C@]4(C)[C@H]3CC[C@]12C [Cholesterol, cholesterol] | 428
CCCCCCCC/C=C\CCCCCCCC(=O)OC[C@H](COP(=O)(O)OCCN)OC(=O)CCCCCCC/C=C\CCCCCCCC [DOPE, 1,2-dioleoyl-sn-glycero-3-phosphoethanolamine] | 188

same assay, conditions: first round of TT3-DOPE LLNs; level 4 of the component

Compound | K4 (average luminescence intensity, Kn = ΣRLIn/4)
1,2-dimyristoyl-sn-glycerol, methoxypolyethylene glycol-2000 [DMG-PEG2000] | 174
CC(C)CCC[C@@H](C)[C@H]1CC[C@H]2[C@@H]3CC=C4C[C@@H](O)CC[C@]4(C)[C@H]3CC[C@]12C [Cholesterol, cholesterol] | 535
CCCCCCCC/C=C\CCCCCCCC(=O)OC[C@H](COP(=O)(O)OCCN)OC(=O)CCCCCCC/C=C\CCCCCCCC [DOPE, 1,2-dioleoyl-sn-glycero-3-phosphoethanolamine] | 1419

same assay, conditions: second round of TT3-DOPE LLNs

Compound | ΔK = Kmax − Kmin (impact of the component on mRNA delivery)
1,2-dimyristoyl-sn-glycerol, methoxypolyethylene glycol-2000 [DMG-PEG2000] | 43788
CC(C)CCC[C@@H](C)[C@H]1CC[C@H]2[C@@H]3CC=C4C[C@@H](O)CC[C@]4(C)[C@H]3CC[C@]12C [Cholesterol, cholesterol] | 18025
CCCCCCCC/C=C\CCCCCCCC(=O)OC[C@H](COP(=O)(O)OCCN)OC(=O)CCCCCCC/C=C\CCCCCCCC [DOPE, 1,2-dioleoyl-sn-glycero-3-phosphoethanolamine] | 19529

same assay, conditions: second round of TT3-DOPE LLNs; level 1 of the component

Compound | K1 (average luminescence intensity, Kn = ΣRLIn/4)
1,2-dimyristoyl-sn-glycerol, methoxypolyethylene glycol-2000 [DMG-PEG2000] | 56896
CC(C)CCC[C@@H](C)[C@H]1CC[C@H]2[C@@H]3CC=C4C[C@@H](O)CC[C@]4(C)[C@H]3CC[C@]12C [Cholesterol, cholesterol] | 29028
CCCCCCCC/C=C\CCCCCCCC(=O)OC[C@H](COP(=O)(O)OCCN)OC(=O)CCCCCCC/C=C\CCCCCCCC [DOPE, 1,2-dioleoyl-sn-glycero-3-phosphoethanolamine] | 33465

same assay, conditions: second round of TT3-DOPE LLNs; level 2 of the component

Compound | K2 (average luminescence intensity, Kn = ΣRLIn/4)
1,2-dimyristoyl-sn-glycerol, methoxypolyethylene glycol-2000 [DMG-PEG2000] | 56833
CC(C)CCC[C@@H](C)[C@H]1CC[C@H]2[C@@H]3CC=C4C[C@@H](O)CC[C@]4(C)[C@H]3CC[C@]12C [Cholesterol, cholesterol] | 35974
CCCCCCCC/C=C\CCCCCCCC(=O)OC[C@H](COP(=O)(O)OCCN)OC(=O)CCCCCCC/C=C\CCCCCCCC [DOPE, 1,2-dioleoyl-sn-glycero-3-phosphoethanolamine] | 38426

same assay, conditions: second round of TT3-DOPE LLNs; level 3 of the component

Compound | K3 (average luminescence intensity, Kn = ΣRLIn/4)
1,2-dimyristoyl-sn-glycerol, methoxypolyethylene glycol-2000 [DMG-PEG2000] | 42863
CC(C)CCC[C@@H](C)[C@H]1CC[C@H]2[C@@H]3CC=C4C[C@@H](O)CC[C@]4(C)[C@H]3CC[C@]12C [Cholesterol, cholesterol] | 47647
CCCCCCCC/C=C\CCCCCCCC(=O)OC[C@H](COP(=O)(O)OCCN)OC(=O)CCCCCCC/C=C\CCCCCCCC [DOPE, 1,2-dioleoyl-sn-glycero-3-phosphoethanolamine] | 52995

same assay, conditions: second round of TT3-DOPE LLNs; level 4 of the component

Compound | K4 (average luminescence intensity, Kn = ΣRLIn/4)
1,2-dimyristoyl-sn-glycerol, methoxypolyethylene glycol-2000 [DMG-PEG2000] | 13109
CC(C)CCC[C@@H](C)[C@H]1CC[C@H]2[C@@H]3CC=C4C[C@@H](O)CC[C@]4(C)[C@H]3CC[C@]12C [Cholesterol, cholesterol] | 57052
CCCCCCCC/C=C\CCCCCCCC(=O)OC[C@H](COP(=O)(O)OCCN)OC(=O)CCCCCCC/C=C\CCCCCCCC [DOPE, 1,2-dioleoyl-sn-glycero-3-phosphoethanolamine] | 44816

Reference: patent US10369122B2, “Benzene-1,3,5-tricarboxamide derivatives and uses thereof” (OHIO STATE INNOVATION FOUNDATION, priority 2015, dated 2019)
